Tests used:
humans = conditions: ref Trachsel 2012; cited from earlier work
human TAAR1 = molecular target: T1, human TAAR1 (Homo sapiens, UniProt Q96RJ0); test: Activity at the human TAAR1 (cAMP assay, HEK 293 cells); type: cell-based
T1 construct: expressed in transfected cells; host or cells: HEK 293 cells
T1 sequence (Q96RJ0 1-339): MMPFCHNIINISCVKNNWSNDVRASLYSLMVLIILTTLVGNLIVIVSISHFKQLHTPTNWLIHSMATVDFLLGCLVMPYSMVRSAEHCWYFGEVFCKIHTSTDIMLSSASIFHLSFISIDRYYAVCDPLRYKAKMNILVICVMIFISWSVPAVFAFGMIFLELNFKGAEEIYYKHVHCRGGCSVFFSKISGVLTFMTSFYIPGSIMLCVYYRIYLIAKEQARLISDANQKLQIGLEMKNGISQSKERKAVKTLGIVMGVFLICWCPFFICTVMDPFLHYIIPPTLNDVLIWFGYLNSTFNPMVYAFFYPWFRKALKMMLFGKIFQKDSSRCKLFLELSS
Method: Once 80–90% confluency was reached, the cells were collected by removing the medium, washing with PBS and then adding 5 ml of trypsin/EDTA solution for 5 min at 37°C. Next, 45 ml of medium was added and the entire mixture was transferred into a falcon tube. The tube was then centrifuged at room temperature for 3 min at 900 revolutions per minute (rpm). Next, the supernatant was removed in order to resuspend the remaining cell pellet in fresh medium to 5 × 10^5 cells/ml. Hundred microliter of the cells was transferred into a 96-well plate ([…]; BIOCOAT 6640, Becton Dickinson, Allschwil, Switzerland) and incubated for 20 h at 37°C.
For the cAMP assay, the aspirated medium was replaced with 50 μl PBS without Ca^2+ and Mg^2+ ions. Using snap inversion, the PBS was extracted and the plate was gently tapped against tissue. Next, 90 μl of Krebs-Ringer Bicarbonate buffer (KRB, Sigma-Aldrich) containing 1 mM IBMX was added and incubated for 60 min at 37°C and 5% CO2/95% air. Each test compound was examined in duplicate in a concentration range between 300 pM and 30 μM. A standard curve with a range of cAMP concentrations (0.13 nM–10 μM) was created for each 96-well plate. Each experiment was accompanied with a reference plate that included RO5256390, β-phenylethylamine and p-tyramine. The cells were exposed to either 30 μl of compound solution, 30 μl of β-phenylethylamine (as maximal response), or a basal control in PBS (containing 1 mM IBMX) for 40 min at 37°C. Next, under forceful shaking using black lids, the cells were exposed to 50 μl of 3× detection mix solution (composed of Ru-cAMP Alexa700 anti-cAMP antibody and lysis buffer) for 120 min at room temperature. Using the NanoScan reader (Innovate Optische Messtechnik, Berlin, Germany; 456 nm excitation wavelength; 630 and 700 nm emission wavelengths), the fluorescence was examined and the FRET signal was determined using the following equation; FRET (700 nm)- P × FRET (630 nm), where P = Ru (700 nm)/Ru (630 nm).

head twitch response = system: head twitch response; set-up: method as in Halberstadt et al. (2019); conditions: ref Halberstadt et al. (2019); cited from earlier work

Structure (SMILES): COc1cc(CCN)cc(OC)c1OC(F)(F)F [compound 13, 4-trifluoromethoxy-3,5-dimethoxyphenethylamine]
- Increase in human potency compared to mescaline (5) (humans): > 9 fold
- EC50 (human TAAR1): > 10 µM

Structure (SMILES): COc1cc(CC(C)N)cc(OC)c1OC(F)F (stereo not drawn) [compound 14, 4-difluoromethoxy-3,5-dimethoxyamphetamine]
- EC50 (human TAAR1): > 10 µM

Structure (SMILES): COc1cc(CCN)cc(OC)c1OCC(F)(F)F [compound 18, 3,5-dimethoxy-4-(2,2,2-trifluoroethoxy)phenethylamine]
- EC50 (human TAAR1): > 10 µM

Structure (SMILES): COc1cc(CCN)cc(OC)c1OC(CF)CF [compound 23, 3,5-dimethoxy-4-(1,3-difluoroprop-2-yloxy)phenethylamine]
- EC50 (human TAAR1): > 10 µM

Structure (SMILES): COc1cc(CCN)cc(OC)c1OCCCF [compound 25, 3,5-dimethoxy-4-(3-fluoropropoxy)-phenethylamine]
- EC50 (human TAAR1): > 10 µM

Structure (SMILES): COc1cc(CCN)cc(OC)c1OCCC(F)(F)F [compound 26, 3,5-dimethoxy-4-(3,3,3-trifluoropropoxy)phenethylamine]
- EC50 (human TAAR1): > 10 µM

Structure (SMILES): CCCOc1c(OC)cc(CC(C)N)cc1OC (stereo not drawn) [compound 28, 3,5-dimethoxy-4-propyloxyamphetamine]
- Head twitch response (head twitch response): induced a head twitch response with almost identical potency
- EC50 (human TAAR1): > 10 µM

Structure (SMILES): COc1cc(CCN)cc(OC)c1OC1CC1 [compound 29, 4-cyclopropyloxy-3,5-dimethoxyphenethylamine]
- EC50 (human TAAR1): > 10 µM

Structure (SMILES): C=C(C)COc1c(OC)cc(CCN)cc1OC [compound 32, 3,5-dimethoxy-4-methallyloxyphenethylamine]
- EC50 (human TAAR1): > 10 µM

Structure (SMILES): COc1cc(CCN)cc(OC)c1OCc1ccccc1 [compound 33, 4-benzyloxy-3,5-dimethoxyphenethylamine]
- EC50 (human TAAR1): > 10 µM
